These results are taken from patent EP4624497A1, “PHOSPHOEN[…] PROBE, PREPARATION METHOD THEREFOR AND APPLICATION THEREOF” (priority 2022, dated 2024).

The subject of this assay is 293 cells with optical probe plasmids expressed in the cytosol. The experiment in a line: dynamic monitoring of phosphoenolpyruvate in the cytosol with the optical probe. It counts as cell-based. The settings on record: 5 mM Oxalate added, detection continued for 30 minutes, HBSS solution. How it is done:
• 1. pCDNA3.1+-based phosphoenolpyruvate optical probe plasmids were transfected into HEK293 by using the transfection reagent Lipofectamine2000 (Invitrogen) and incubated in a cell incubator at 37 °C with 5% CO2. After the exogenous gene was fully expressed for 24~36 hours, the fluorescence detection was performed. • 2. After induction of expression, adherent HEK293 cells were washed three times with PBS and placed in HBSS solution for fluorescence microscopy and microplate reader assays, respectively.
In this example, different localization signal peptides were used to fuse to the optical probe 254/255-TtPFK- I253K/Q254L/R255L/G256F-cpYFP-Y1S which was localized in different organelles.
Thirty-six hours after transfection of 293 cells with optical probe plasmids expressed in the cytosol, the cells were rinsed with PBS, placed in an HBSS solution, and the change in the ratio of the fluorescence intensity at an excitation of 420 nm and an emission of 528 nm to that at an excitation of 485 nm and an emission of 528 nm was detected in a 30-minute period.

Take `O=C(O)C(=O)O` [Oxalate]: the 485/420 ratio entry is recorded as “up to 3.5 times the initial value”.
